SMILES strings stand for the structures. Where only a bound is given, the exact number is not on record here.

For orientation: melting point means the temperature of the solid-liquid transition.

On to `CCOC(=O)N1C(c2ccccc2)OC(=O)C1c1ccccc1` (stereo unspecified), for which the melting point lay within 197 to 199 °C.

On to `CC(=O)OCC1OC(OC(C)=O)C(N=[N+]=[N-])C(OC(C)=O)C1OC(C)=O` (stereo unspecified), for which the melting point was in the range of 131 to 132 °C.

In the case of `O=C(O)CCc1conc1-c1ccc(Cl)c(F)c1`, the melting point is 148 to 149 °C.

On to `CC(Oc1ncn(-c2ccc(Cl)cc2)n1)C(=O)O` (stereo unspecified), for which the melting point was in the range of 196 to 198 °C.

For the compound `CCCCCCOc1ccc(C(=O)NC2CCC(C)(C)C2)cc1` (stereo unspecified), the melting point was 82 to 83 °C.

`CCCCCCCCCCCCCCCCNc1ccc(C(=O)NS(=O)(=O)c2ccc(C)cc2)cc1`: the melting point is 123 to 124 °C.

The compound `O=C(O)Cc1ccc(Oc2ccc(C(F)(F)F)cn2)c(Cl)c1` yielded a melting point of 138 to 139 °C.

Consider `O=c1[nH]c(=O)n(C2CC(OCc3ccccc3)C(COCc3ccccc3)C2O)cc1I` (stereo unspecified), for which the melting point was 165 °C.

Take `CC(C)=CC(=S)Nc1ccccc1`: the melting point came out at 175 °C.

The compound `O=[N+]([O-])c1c(Cl)sc(Cl)c1S(=O)(=O)Cl` displayed a melting point of 89 to 91 °C.

`ClCCCn1c2ccccc2c2cc(-c3nc(C4CC4)no3)ncc21` displayed a melting point of 165 to 169 °C.

`COc1ccccc1CCc1c(CO)ccc(OC)c1OC` registered a melting point of 108 to 109 °C.

Turning to `Fc1ccc2c(-c3ccncc3)noc2c1`, the melting point is 138 to 146 °C.

Compound `CCCc1c(OCCCS(=O)(=O)c2ccc(CC(=O)OC)c(Cl)c2Cl)ccc(C(C)=O)c1O` returned a melting point of 115 to 118 °C.

For the compound `Cc1ccc2c(c1)N(CC(=O)c1ccccc1C)C(=O)C(NC(=O)Nc1cccc(C(=O)O)c1)CN2C(=O)C(C)C` (stereo unspecified), the melting point lay within 162 to 165 °C.

As for `C=CCN1CCN(C2N=C(N)OC2C)CC1` (stereo unspecified), the melting point was found to be 99 °C.

For `Cc1nc(Cl)c(C#N)c(C)c1-c1ccccc1`, the melting point was 118 to 123 °C.

`O=C(Nc1nccs1)c1c(C(F)(F)F)nc2ccccc2c1O` gave a melting point of over 280 °C.

Take `CNS(=O)(=O)c1ccc(N2CCC(C(=O)OC)=Cc3cc(Br)ccc32)cc1`: the melting point was in the range of 201 to 204 °C.

In turn, `COCCn1nnc2cc3c(cc2c1=O)OCN(C1CC1)C3=O` came in with a melting point of 103 to 105 °C.

For `O=C(O)CC[C@H]1O[C@@H](c2ccccc2Cl)c2cc(Cl)ccc2N(Cc2ccccc2)C1=O` (relative stereo), the melting point lay within 135 to 137 °C.

Consider `CC1CN(c2ccc(C(=O)C(F)(F)F)cc2)N=C1NC(=O)C(F)(F)F` (stereo unspecified), for which the melting point lay in the range of 203 to 204 °C.

`O=C(CN(C(=O)C(=O)N(CC(=O)OCc1ccccc1)S(=O)(=O)C(F)(F)F)S(=O)(=O)C(F)(F)F)OCc1ccccc1`: the melting point lay within 53 to 55 °C.

Turning to `CC(=O)Nc1ccc2c(c1)C(=O)NC2=O`, the melting point was over 250 °C.

For the compound `O=[N+]([O-])c1ccc2oc(-c3cccs3)nc2c1`, the melting point lay within 186 to 188 °C.

For the compound `N#Cc1c[nH]cc1-c1ccc(Cl)cc1C(=O)c1ccccc1`, the melting point is 175 to 177 °C.

In turn, `Cc1ccc(-n2c(-c3ccc(Br)cc3)ccc2-c2ccc(Br)cc2)cc1` registered a melting point of 262 to 264 °C.

Compound `CC(C)(C)OC(=O)COC1CCN(C(=O)[C@H](Cc2ccc(OC(C)(C)C)cc2)NC(=O)c2ccc(C#N)cn2)CC1` had a melting point of 122 to 123 °C.

In turn, `FC(F)(F)c1cc(Cl)c(Oc2ccc3ccc(S)cc3c2)c(Cl)c1` gave a melting point of 98 °C.

With `Cc1c(C)c(N2CCN(c3ccc(CN)cc3)CC2)c(C)c2c1OC(C)(C)C2`, the melting point fell in the range of 156 to 158 °C.

The compound `O=C(O)c1cccc(CN2CCC(c3cn(Cc4ccco4)c4ccccc34)CC2)c1` registered a melting point of 154 to 155 °C.

Take `CC(C)C(c1ccccc1O)N1CCOCC1` (stereo unspecified): the melting point lay in the range of 73 to 77 °C.

`CCOCc1nc2c(N)nc3ccc(OCc4cccnc4)cc3c2n1CC(C)C` had a melting point of 204 to 206 °C.

`O=[N+]([O-])c1ccc(F)c(-n2nc3c(c2Cl)CCCC3)c1` registered a melting point of 109 °C.

As to `O=c1c2ccccc2nc(-c2cc(-c3ccc(Cl)cc3)c(N3CCOCC3)s2)n1-c1ccc(Cl)cc1`, the melting point lay in the range of 240 to 243 °C.

For the compound `COc1ccc(F)c2c1OC(CN1CC(C)(C)Cn3c1nc(-c1ccncn1)cc3=O)CC2` (racemic), the melting point is 136 to 138 °C.

`Nc1cc(O)ccc1Oc1ccccc1` registered a melting point of 156 to 157 °C.

The compound `CC1(C)Oc2cc(C#N)sc2[C@@H](N2CCCCC2=O)[C@@H]1O` (relative stereo) showed a melting point of 212 to 214 °C.

`CCN(C1CC(C)(C)Oc2ccc(O)cc21)S(C)(=O)=O` (stereo unspecified) came in with a melting point of 169 to 170 °C.

Consider `CCCc1c(OCCCCSc2nnc(SCC(=O)O)s2)ccc(C(C)=O)c1O`, for which the melting point was in the range of 123 to 124 °C.

With `COc1ccc(C(=O)N(C(=O)c2ccc(OC)cc2)c2nc3ccc(N4CCN(Cc5ccccc5)CC4)cc3c(NCc3ccccc3)c2C#N)cc1`, the melting point amounted to 157 °C.

With `CCCn1cc(-c2nc(C(N)=O)c(N)nc2-c2ccccc2)ccc1=O`, the melting point is over 250 °C.

`O=C1Nc2ccccc2N2CCN(CCc3ccncc3)CC12` (stereo unspecified) yielded a melting point of 184 to 186 °C.

In turn, `CC1=c2c(cc3c(c2C)C=C(C(=O)OCc2ccccc2)N=3)N=C1C(=O)OCc1ccccc1` returned a melting point of 197 to 200 °C.

`Cc1ccc(NC(=O)c2cc(Cl)ccc2NCC2CCN(C(C)C)CC2)nc1` yielded a melting point of 147 to 148 °C.

For the compound `CCOC(=O)CC(=O)c1ccc(C)nn1`, the melting point turned out to be 79 °C.

In turn, `CC1=C(C(=O)CS(=O)(=O)NC(C)C)C(c2cccc([N+](=O)[O-])c2)C(C(=O)OC(C)C)=C(C)N1` (stereo unspecified) returned a melting point of 119 to 121 °C.

As for `CN(C)c1ccc2cc(-c3ccn4ccnc4c3C#N)ccc2c1`, the melting point fell in the range of 268 to 269 °C.

Turning to `CC(C)(C#N)c1cc(C(O)c2cccnc2)cc(C(C)(C)C#N)c1` (stereo unspecified), the melting point lay in the range of 117 to 120 °C.

Regarding `COC(=O)C(C)Oc1ccc(Oc2ncc(Cl)cc2N)cc1` (stereo unspecified), the melting point lay in the range of 92 to 94 °C.

Turning to `Cc1nc(Nc2ccc(Cl)cc2)sc1-c1nc2ccccc2c(=O)n1-c1ccccc1Cl`, the melting point fell in the range of 237 to 238 °C.

`CCCCOc1cc(CCC(=O)O)ccc1-c1cccc(CN(C)C(=O)c2cccc(OC)c2)c1` registered a melting point of 80 to 82 °C.

As for `C(=C\c1nc(COc2ccc(CCCn3cncn3)cc2)co1)/c1ccccc1`, the melting point lay within 108 to 109 °C.

`O=C(NCC(c1ccccc1)c1ccccc1)N1CCC(C(=O)O)(c2ccccc2)CC1` came in with a melting point of 173 to 174 °C.

As to `CCOC(=O)c1sc(Oc2ccc(C(C)=O)c(O)c2)c2c1CCc1cnn(C)c1-2`, the melting point fell in the range of 131 to 132 °C.

In the case of `CC(C)=C1C(=O)N(c2ccc(O)cc2)C(=O)/C1=C(/c1cc(C)sc1C)C(C)C`, the melting point fell in the range of 136 to 138 °C.

`CC=C1CCC2C3CCC4CC(O)C(OCC)CC4(C)C3C(=NO)CC12C` (stereo unspecified): the melting point fell in the range of 176 to 193 °C.

For `CC(=O)Nc1cc([N+](=O)[O-])ccc1OCCCN(C)C`, the melting point was determined as 69 °C.

The compound `O=C(NCc1ccc(Cl)cc1)c1cnc2cc(C#CCO)ccc2c1O` registered a melting point of 218 to 220 °C.

Consider `O=C1C=C(COCc2ccccc2)N=CC1OCc1ccccc1` (stereo unspecified), for which the melting point lay within 103 to 131 °C.

As for `Fc1ccc(C(=C(c2ccccc2)c2ccc(OCCN3CCOCC3)cc2)C(F)(F)F)cc1`, the melting point was in the range of 67 to 69 °C.

On to `CCN(CC)CCOc1ccc2c(c1)c(C(=O)OCc1ccccc1)c(C)n2C`, for which the melting point was in the range of 73 to 74 °C.

Take `Cc1cc2c(cc1C)C(c1ccccc1Cl)C(=O)N2` (stereo unspecified): the melting point came to 231 °C.

In turn, `Cc1ccc(Oc2ccc(-n3cncn3)cc2)c(O)c1` displayed a melting point of 107 to 109 °C.

The compound `Cn1c(C#N)ccc1-c1ccc2c(c1)C(C)(C)OC(=S)N2` yielded a melting point of 228 to 229 °C.

Turning to `CC(Cl)=CCC1CCC2C(C=CC3=CCCc4c3n2c2ccncc42)C1` (stereo unspecified), the melting point lay in the range of 130 to 132 °C.

Compound `CC(C)NC1=NS(=O)(=O)c2cc(F)c(NC(C)C)cc2N1` yielded a melting point of 234 to 237 °C.

As for `O=c1nc(-c2cccc(S(=O)(=O)CCCc3ccccc3)n2)sc2ccccc12`, the melting point was in the range of 150 to 151 °C.

The compound `O=[N+]([O-])c1sc(I)nc1I` returned a melting point of 135 °C.

In turn, `Fc1ccc2nc(S)oc2c1F` showed a melting point of 209 to 210 °C.

`Cc1c(Cl)cccc1S(=O)(=O)Nc1ccc2ncncc2c1` yielded a melting point of over 270 °C.

`NC1CCN(c2c(F)cc3c(=O)c(C(=O)O)cn(C4CC4)c3c2F)C1` (stereo unspecified) had a melting point of 290 to 292 °C.

In the case of `Cc1cccc(N2CCN(C(=O)OC(C)(C)C)CC2)c1[N+](=O)[O-]`, the melting point lay in the range of 101 to 102 °C.

For the compound `CCn1ncc2c(NCc3ccncc3)c3ccccc3nc21`, the melting point was in the range of 191 to 192 °C.

Compound `CN(C)C=NS(=O)(=O)c1cc(CCNC(=O)C(F)(F)F)ccc1OCC1CCCO1` (stereo unspecified) returned a melting point of 138 to 140 °C.

For `COc1cccc([C@H]2O[C@H](CC(=O)Nc3ccc4oc(C(=O)O)c(OCC(=O)O)c4c3)C(=O)N(CC(C)(C)CO)c3ccc(Cl)cc32)c1OC`, the melting point lay in the range of 193 to 196 °C.

`O=C(NCC(F)(F)F)C1(CCCCc2ccc(NS(=O)(=O)c3ccccc3[N+](=O)[O-])cc2)c2ccccc2-c2ccccc21`: the melting point was in the range of 60 to 64 °C.

As to `O=C1COc2ccccc2C(=O)C1=CNc1ccccc1`, the melting point was in the range of 94 to 96 °C.

Turning to `CCCCCCCCCCCCCCCCOCC(CO)CF` (stereo unspecified), the melting point was found to be 34 °C.

As to `CCCCOC(=O)C1CC(n2cnc3c(Cl)ncnc32)C(O)C1O` (stereo unspecified), the melting point lay within 104 to 106 °C.

Turning to `CCCCCCCCc1ccc(C(=O)Cc2cccc(C#N)c2)cc1`, the melting point lay within 59 to 64 °C.

`O=C(c1cc(-c2ccc(F)cc2)c(-c2ccc(F)cc2)[nH]1)C(F)(F)F` gave a melting point of 211 to 212 °C.

Take `Cc1ccc(S(=O)(=O)OCC(COC(=O)c2ccccc2)OS(=O)(=O)c2ccc(C)cc2)cc1` (single isomer, unassigned; (-)): the melting point was 105 to 106 °C.

`CN(C)C=C1C(=O)OC(=O)c2ccccc21` had a melting point of 137 to 140 °C.

The compound `CC(C)n1nc(-c2nc(S(C)(=O)=O)c(N)nc2-c2ccccc2)ccc1=O` came in with a melting point of 249 to 251 °C.

Regarding `Cn1nnc(-c2ccc(C#CC3(O)CN4CCC3CC4)cc2)n1` (stereo unspecified), the melting point was 228 to 230 °C.

Values taken from a melting point compilation (Tetko et al.; mined from patent text by program, amines drawn as free bases though some values may be those of a salt).
